Patent publication US5216175A, “Antimalarial analogs of artemisinin” (SRI International, priority 1990, dated 1993)
≈ marks a conversion by molar mass, not a printed value. Like-named read-outs stand apart in the source and are kept apart here.

Assays:
Assay type in all cases: cell-based
[1] = test system: P. falciparum D-6 clone; experiment: In vitro antimalarial activity, P. falciparum D-6 clone; details: for IC50: Plasmodium falciparum; for times as potent as QHS against the D-6 clone: relative to QHS
Text: (§1) The analogs have been segregated arbitrarily here into those compounds in which the tetracyclic skeleton is intact (Table 2) and various ring-cleaved analogs (Table 3). The activities of the conventional malaria therapeutics chloroquine, mefloquine, and pyrimethamine is included for comparison.

[2] = test system: P. falciparum W-2 clone; experiment: In vitro antimalarial activity, P. falciparum W-2 clone; details: for IC50: Plasmodium falciparum; for times as potent as QHS against the W-2 clone: relative to QHS
Text: as §1

[3] = test system: P. falciparum; experiment: In vitro antimalarial activity / SAR data, clone not stated; details: 24 versus 52
Text: as §1

[4] = Table 2, D-6 clone, drug-resistant strains of P. falciparum, read-out: IC50 D-6 clone
[5] = Table 2, D-6 clone, drawing 57 (artemisinin) = 100
[6] = Table 2, W-2 clone, drug-resistant strains of P. falciparum, read-out: IC50 W-2 clone
[7] = Table 2, W-2 clone, drawing 57 (artemisinin) = 100
[8] = Table 3, tricyclic analogs, D-6 clone, read-out: In vitro IC50 D-6 clone
[9] = Table 3, tricyclic analogs, D-6 clone
[10] = Table 3, tricyclic analogs, W-2 clone, read-out: In vitro IC50 W-2 clone
[11] = Table 3, tricyclic analogs, W-2 clone

Row | Compound | IC50 [1, 4] | Relative potency (D-6 clone) [1, 5] | IC50 [2, 6] | Relative potency (W-2 clone) [2, 7] | further results
1 | C[C@@H]1CC[C@H]2[C@@H](C)C(=O)O[C@@H]3O[C@@]4(C)CC[C@@H]1[C@]32OO4 [(+)-Artemisinin, reference compound] | 4.44 ng/mL (≈ 15.7 nM) | 100 | 2.11 ng/mL (≈ 7.47 nM) | 100 | –
2 | CCCC[C@H]1C(=O)O[C@@H]2OC(C)(C)OO[C@@]23CCCC[C@@H]13 (relative stereo) [compound 4590, 7-Butyl-3,3-dimethyl-4aH,6H-hexahydro-1,2,4-trioxino[6.5-j] benzopyran-6-one] | – | – | – | – | IC50 [1, 8]: 13.9 ng/mL (≈ 46.8 nM); Relative potency (D-6 clone) [1, 9]: 5; IC50 [2, 10]: 11.8 ng/mL (≈ 39.5 nM); Relative potency (W-2 clone) [2, 11]: 7
3 | (-)-4ab,7a,7aa,10β-Hexahydro-3,3,7β,10a-tetramethyl-4aH,6H-trioxino[6.5-j][2]-benzopyran-6-one [compound 4591] | – | – | – | – | In vitro IC50 D-6 clone [1, 9]: 9.65 ng/mL; Relative potency (D-6 clone) [1, 9]: 8; In vitro IC50 W-2 clone [2, 11]: 9.71 ng/mL; Relative potency (W-2 clone) [2, 11]: 9
4 | CCN(CC)CCCC(C)Nc1ccnc2cc(Cl)ccc12 (stereo not shown) [Chloroquine, reference compound] | – | 83 | – | 7 | IC50 ([1]; read-out: IC50 D-6 clone): 5.33 ng/mL (≈ 16.7 nM); IC50 ([2]; read-out: IC50 W-2 clone): 31.7 ng/mL (≈ 99.1 nM)
5 | C[C@H]1[C@@H](OOC(C)(C)C)O[C@@H]2O[C@@]3(C)CC[C@H]4[C@H](C)CC[C@@H]1[C@@]24OO3 [compound 4588] | 0.53 ng/mL (≈ 1.49 nM) | 1054 | 0.41 ng/mL (≈ 1.15 nM) | 656 | –
6 | CCCC(=O)OCC(CC)(CC)OOC(C)(C)C [compound 4597, 2-t-Butylperoxy-2-ethylbutyl Butyrate] | – | – | – | – | In vitro IC50 D-6 clone [1, 9]: Inactive; In vitro IC50 W-2 clone [2, 11]: Inactive
7 | CC1(C)OO[C@]23CCCC[C@H]2CC(=O)O[C@@H]3O1 (relative stereo) [compound 4593, (±)-Hexahydro-3,3-dimethyl-4aH,6H-1,2,4-trioxino-[6.5-j][2] benzopyran-6-one] | – | – | – | – | IC50 [1, 8]: 189 ng/mL (≈ 779 nM); Relative potency (D-6 clone) [1, 9]: 0.4; IC50 [2, 10]: 178 ng/mL (≈ 735 nM); Relative potency (W-2 clone) [2, 11]: 0.5
8 | CCO[C@H]1O[C@@H]2O[C@@]3(C)CC[C@H]4[C@H](C)CC[C@@H]([C@H]1CC)[C@@]24OO3 [compound 4598] | 0.22 ng/mL (≈ 0.674 nM) | 550 | 0.18 ng/mL (≈ 0.551 nM) | 272 | –
9 | CCc1nc(N)nc(N)c1-c1ccc(Cl)cc1 [pyrimethamine, reference compound] | 0.35 ng/mL (≈ 1.41 nM) | 1269 | 121 ng/mL (≈ 486 nM) | 2 | –
10 | C[C@@H]1CC[C@H]2[C@@H](CCCc3ccccc3)C(=O)O[C@@H]3O[C@@]4(C)CC[C@@H]1[C@]32OO4 [compound 2821] | 0.09 ng/mL (≈ 0.233 nM) | 611 | 0.11 ng/mL (≈ 0.285 nM) | 445 | –
11 | (-)-Hexahydro-3,3,10a,11β-tetramethyl-4aH,6H-1,2,4-trioxino-[6.5-j]benzopyran-6-one [compound 4592] | – | – | – | – | In vitro IC50 D-6 clone [1, 9]: 1.28 ng/mL; Relative potency (D-6 clone) [1, 9]: 58
12 | CCC1(CC)OO[C@]23CCCC[C@H]2[C@@H](C)C(=O)O[C@@H]3O1 (relative stereo) [compound 52] | – | – | – | – | activity change by additional alkyl groups in the vicinity of the peroxy group [3]: reduced activity substantially
13 | CCC[C@H]1[C@@H](OCC)O[C@@H]2O[C@@]3(C)CC[C@H]4[C@H](C)CC[C@@H]1[C@@]24OO3 [compound 4600, (+)-Octahydro-3,6-dimethyl-10β-ethoxy-3,12-epoxy-9β-propyl-12H-pyrano[4.3-j]-1,2-benzodioxepine] | 0.39 ng/mL (≈ 1.15 nM) | 120 | 0.63 ng/mL (≈ 1.85 nM) | 76 | –
14 | C[C@@H]1CCC[C@@]23CO[C@@](C)(CC[C@@H]12)OO3 [compound 2823] | – | – | – | – | IC50 [1, 8]: 0.8 ng/mL (≈ 3.77 nM); Relative potency (D-6 clone) [1, 9]: 37
15 | C[C@@]12CC[C@H]3CCC[C@H]4CC(=O)O[C@H](O1)[C@@]34OO2 (relative stereo) [compound 4580, (±)-6,9-desmethylartemisinin] | 33.7 ng/mL (≈ 133 nM) | 12 | 3.92 ng/mL (≈ 15.4 nM) | 48 | –
16 | O=C1C[C@@H]2CCC[C@@H]3C[C@H]4OO[C@]32[C@H](O1)O4 (relative stereo) [compound 4589, Octahydro-3,11-epoxy-11H-pyrano[4.3-j]-1,2-benzodioxan-9(3H) -one] | 129 ng/mL (≈ 572 nM) | 2 | 88.7 ng/mL (≈ 392 nM) | 2 | –
17 | CCCCCCCCCCCCCC[C@H]1C(=O)O[C@@H]2O[C@@]3(C)CC[C@H]4[C@H](C)CC[C@@H]1[C@@]24OO3 [compound 2818] | 81.3 ng/mL (≈ 175 nM) | .0017 | 63.9 ng/mL (≈ 138 nM) | .0017 | –

Row | Compound | IC50 [1, 4] | Relative potency (D-6 clone) [1, 5] | IC50 [2, 6] | Relative potency (W-2 clone) [2, 7] | further results
18 | OC(c1cc(C(F)(F)F)nc2c(C(F)(F)F)cccc12)C1CCCCN1 (stereo not shown) [Mefloquine, reference compound] | 43.7 ng/mL (≈ 116 nM) | 10 | 2.4 ng/mL (≈ 6.34 nM) | 88 | –
19 | C[C@@H]1CC[C@H]2CC(=O)N(C)[C@@H]3O[C@@]4(C)CC[C@@H]1[C@@]23OO4 [compound 4585, (-)-Octahydro-3,6,11-trimethyl-3,12-epoxy-12H-pyridino-[4.3-j] 1,2-benzo dioxepin-10(3H)-one] | 2.05 ng/mL (≈ 7.29 nM) | 214 | 0.42 ng/mL (≈ 1.49 nM) | 502 | times as potent as QHS against the D-6 clone ([1]; D-6 clone): 21.7 times; times as potent as QHS against the W-2 clone ([2]; W-2 clone): 5 times
20 | C[C@@H]1CC[C@H]2C(C)(C)C(=O)O[C@@H]3O[C@@]4(C)CC[C@@H]1[C@]32OO4 [compound 2800, (+)-Octahydro-3,12-epoxy-3,6,9,9-tetramethyl-12H-pyrano [4.3-j]-1,2-benzo dioxepin-10(3H)-one] | 20.9 ng/mL (≈ 70.5 nM) | 2.1 | 25.5 ng/mL (≈ 86.1 nM) | 0.63 | –
21 | C[C@@H]1CC[C@H]2CC(=O)N(Cc3ccccc3)[C@@H]3O[C@@]4(C)CC[C@@H]1[C@@]23OO4 [compound 2803] | 0.45 ng/mL (≈ 1.26 nM) | 149 | 0.07 ng/mL (≈ 0.196 nM) | 171 | –
22 | C[C@@H]1CC[C@H]2[C@@H](C)C(=O)O[C@@H]3OC(C)(C)OO[C@@]32C1 [compound 2816] | – | – | – | – | IC50 [1, 8]: 1.29 ng/mL (≈ 4.77 nM); Relative potency (D-6 clone) [1, 9]: 108; IC50 [2, 10]: 1.46 ng/mL (≈ 5.4 nM); Relative potency (W-2 clone) [2, 11]: 75
23 | (+)-Hexahydro-3,3,7,10α,11β-pentamethyl-4aH,6H-1,2,4-trioxino-[ 6.5-j][2] benzopyran-6-one [compound 4594] | – | – | – | – | In vitro IC50 D-6 clone [1, 9]: 5.35 ng/mL; Relative potency (D-6 clone) [1, 9]: 23; In vitro IC50 W-2 clone [2, 11]: 2.06 ng/mL; Relative potency (W-2 clone) [2, 11]: 24
24 | CC[C@H]1C(=O)O[C@@H]2O[C@@]3(C)CC[C@H]4[C@H](C)CC[C@@H]1[C@@]24OO3 [compound 4586] | 0.72 ng/mL (≈ 2.43 nM) | 642 | 0.18 ng/mL (≈ 0.607 nM) | 1226 | times as potent as QHS against the D-6 clone ([1]; D-6 clone): 6.17 times; times as potent as QHS against the W-2 clone ([2]; W-2 clone): 11.7 times
25 | CC1C(=O)OC(O[Si](C)(C)C(C)(C)C)C2(OO)CCCCC12 (stereo not shown) [compound 4581] | – | – | – | – | IC50 ([1]; read-out: In vitro IC50 D-6 clone): 3020 ng/mL (≈ 9130 nM); Relative potency (D-6 clone) [1, 9]: 0; IC50 ([2]; read-out: In vitro IC50 W-2 clone): 2890 ng/mL (≈ 8750 nM); Relative potency (W-2 clone) [2, 11]: 0
26 | CCC1(CC)OO[C@]23CCCC[C@H]2[C@@H](C)C(=O)O[C@@H]3O1 (relative stereo) [compound 4583] | – | – | – | – | IC50 [1, 8]: 29.7 ng/mL (≈ 105 nM); Relative potency (D-6 clone) [1, 9]: 15; IC50 [2, 10]: 74.2 ng/mL (≈ 261 nM); Relative potency (W-2 clone) [2, 11]: 3
27 | CCCCCC[C@H]1C(=O)O[C@@H]2O[C@@]3(C)CC[C@H]4[C@H](C)CC[C@@H]1[C@@]24OO3 [compound 2817] | 0.03 ng/mL (≈ 0.0851 nM) | 467 | 0.02 ng/mL (≈ 0.0567 nM) | 550 | –
28 | CCC[C@H]1C(=O)O[C@@H]2O[C@@]3(C)CC[C@H]4[C@H](C)CC[C@@H]1[C@@]24OO3 [compound 4599] | 0.22 ng/mL (≈ 0.709 nM) | 550 | 0.04 ng/mL (≈ 0.129 nM) | 1225 | –
29 | CCC(=O)OCC(CC)(CC)OOC(C)(C)C [compound 4596, 2-t-Butylperoxy-2-ethylbutyl proprionate] | – | – | – | – | In vitro IC50 D-6 clone [1, 9]: Inactive; In vitro IC50 W-2 clone [2, 11]: Inactive
30 | CC(C)CC[C@H]1C(=O)O[C@@H]2O[C@@]3(C)CC[C@H]4[C@H](C)CC[C@@H]1[C@@]24OO3 [compound 2822] | 0.35 ng/mL (≈ 1.03 nM) | 157 | 0.5 ng/mL (≈ 1.48 nM) | 98 | –
31 | C[C@@H]1CC[C@H]2CC(=O)O[C@@H]3O[C@@]4(C)CC[C@@H]1[C@@]23OO4 [compound 4584] | 2.32 ng/mL (≈ 8.65 nM) | 180 | 0.31 ng/mL (≈ 1.16 nM) | 650 | –
32 | C[C@@H]1CC[C@H]2[C@@H](CC(=O)O)C(=O)O[C@@H]3O[C@@]4(C)CC[C@@H]1[C@]32OO4 [compound 4595] | 830 ng/mL (≈ 2540 nM) | 0.15 | 151 ng/mL (≈ 463 nM) | 0.3 | –
33 | C[C@@H]1CC[C@H]2CC(=O)N(CC(=O)O)[C@@H]3O[C@@]4(C)CC[C@@H]1[C@@]23OO4 [compound 2804] | 122 ng/mL (≈ 376 nM) | 5.5 | – | – | –
34 | CC(C)[C@H]1C(=O)O[C@@H]2O[C@@]3(C)CC[C@H]4[C@H](C)CC[C@@H]1[C@@]24OO3 [compound 2820] | 0.27 ng/mL (≈ 0.87 nM) | 203 | 0.58 ng/mL (≈ 1.87 nM) | 84 | –
